The values that follow come from patent US20230390279A1, “COMPOSITION AND METHOD FOR TREATING CANCER” (NOVMETAPHARMA CO., LTD., priority 2022, published 2023).

Broadly, the inhibition is the change of the read-out against control, counted positive when it falls.

Common to all, as to assay type: cell-based
Assay [1] concerns Panc1 pancreatic cancer cells. Nature of the assay: MTT cell viability assay, TKI combination. Particulars: Homo sapiens, PANC-1, ceritinib 2.5 μM, 24 hours, read-out: growth inhibition. Here is the method: (§1) To evaluate anticancer effects of ERRγ compound, alone and in combination with TKIs, various cancer cells including A549, Panc-1, Sk-Hep-1, Huh-7, and SK-Hep-1 cells were cultured in DMEM containing 10% FBS and 1% antibiotics.
(§2) To initiate the assay, cells were seeded in 96-well plates at a density of 1×10^4 cells per well and incubated overnight in a 37° C. […] To serve as a control, an equal volume of DMSO was added. After 24 hours of incubation, the media was replaced with media containing 0.5 mg/ml of MTT and the plates were incubated for 1 hour. Then, the medium was removed and formazan crystals were dissolved in 100 μl of DMSO added to each well. A microplate reader was used to measure the absorbance at 570 nm, and cell viability was normalized to control. Statistical significance was calculated using Student's t-test, with significance levels set at **p<0.01, ***p<0.001, and ****p<0.0001.
A general note: Tetrazolium dyes change colour on reduction, which living cells bring about.

Assay [2] has as its system A549 lung cancer cell line. The experiment in a line: MTT cell viability assay, TKI combination. The note with it: Homo sapiens, bosutinib 12.5 μM, 24 hours, read-out: growth inhibition. Here is the method: as §1, §2
Assay [3] has as its system SK-Hep-1 liver cancer cells. Nature of the assay: MTT cell viability assay, TKI combination. Particulars: Homo sapiens, SK-HEP1, lenvatinib 15 μM, 24 hours, read-out: growth inhibition. The procedure: as §1, §2
Assay [4] concerns Huh-7 liver cancer cells. The experiment in a line: MTT cell viability assay, TKI combination. Particulars: Homo sapiens, lenvatinib 1.3 μM, 24 hours, read-out: growth inhibition. Here is the method: as §1, §2
In assay [5] the test system is SKOV-3 ovarian cancer cells. Nature of the assay: MTT cell viability assay, TKI combination. Particulars: Homo sapiens, SK-OV-3, ruxolitinib 30 μM, 24 hours, read-out: growth inhibition.
Assay [6] has as its system sorafenib-resistant liver cancer cell line SK-Hep-R. The experiment in a line: Cell death by FACS (annexin/PI) and cleaved caspase-3. The note with it: SK-Hep-R cells; FIGS. 1A to 1C. Here is the method: (§3) To evaluate the cancer cell death by FACS, first, a cancer cell line was incubated in FITC-bound annexin and propidium iodide (PI) for 15 minutes, and annexin and PI binding were then measured by flow cytometry to acquire data using a BD Accuri C6 flow cytometer (BD Biosciences) and analyzed with the ACCURI™ C6 analysis program (BD Biosciences)/FlowJo software (FlowJo, LLC.). Cancer cell line death was evaluated using a cleaved caspase-3 antibody (Cell Signaling Technology).
In general terms: In flow cytometry, cells or beads pass a laser one at a time.

Assay [7] relates to sorafenib-resistant liver cancer cell line Huh7-SR. The description is as above. Particulars: Huh7-SR cells; FIGS. 1A to 1C. Here is the method: as §3
Assay [8] deals with sorafenib-resistant liver cancer cell line SK-Hep-R. The experiment in a line: Cell proliferation, trypan blue cell count with hemocytometer. The note with it: sorafenib alone, FIG. 4B.
Assay [9] deals with sorafenib-resistant liver cancer cell line Huh7-R. The description is as above. Particulars: sorafenib alone, FIG. 4A.

Take `Cc1cc(Nc2ncc(Cl)c(Nc3ccccc3S(=O)(=O)C(C)C)n2)c(OC(C)C)cc1C1CCNCC1` [ceritinib]: the inhibition at 2.5 µM in assay [1] amounted to 17%.

For `COc1cc(Nc2c(C#N)cnc3cc(OCCCN4CCN(C)CC4)c(OC)cc23)c(Cl)cc1Cl` [bosutinib], in [2], the inhibition at 12.5 µM was 16.3%.

Turning to `COc1cc2nccc(Oc3ccc(NC(=O)NC4CC4)c(Cl)c3)c2cc1C(N)=O` [lenvatinib], the inhibition at 15 µM in [3] was 16.7%. Also, the inhibition at 1.3 µM in [4] was determined as 16.7%.

For the compound `N#CC[C@H](C1CCCC1)n1cc(-c2ncnc3[nH]ccc23)cn1` [ruxolitinib], the inhibition at 30 µM in assay [5] is 8.8%.

Turning to `CNC(=O)c1cc(Oc2ccc(NC(=O)Nc3ccc(Cl)c(C(F)(F)F)c3)cc2)ccn1` [sorafenib], the “cell death by sorafenib” value in assay [6] and in assay [7] was “did not increase” each time. Besides, the cell proliferation result in assay [8] and in [9] was “not affected” throughout.
